# Data reported in ChEMBL document CHEMBL1152860, “Synthesis and antiproliferative activity of 3-amino-N-phenyl-1H-indazole-1-carboxamides” (2009).
# Calls of active or inactive are those of the source. The calls are words filed in the database; no cut-off is given here.
# Key:
# NCI-H322M = experiment: Growth inhibition of human NCI-H322M cells after 48 hrs by SRB assay; format: functional
# SF-268 = experiment: Growth inhibition of human SF268 cells after 48 hrs by SRB assay; format: functional; settings: SF-268, 48 h
# IGROV-1 = experiment: Growth inhibition of human IGROV1 cells after 48 hrs by SRB assay; format: functional; settings: IGROV-1, 48 h
# HL-60(TB) = experiment: Growth inhibition of human HL-60(TB) cells after 48 hrs by SRB assay; format: functional; settings: HL-60, 48 h; for CC50: read-out: LC50 (the source's name)
# HCC 2998 = experiment: Growth inhibition of human HCC2998 cells after 48 hrs by SRB assay; format: functional; settings: HCC 2998, 48 h
# HT-29 = experiment: Growth inhibition of human HT-29 cells after 48 hrs by SRB assay; format: functional; settings: HT-29, 48 h
# NCI-H226 = experiment: Growth inhibition of human NCI-H226 cells after 48 hrs by SRB assay; format: functional; settings: NCI-H226, 48 h
# MDA-MB-231 = experiment: Growth inhibition of human MDA-MB-231 cells after 48 hrs by SRB assay; format: functional; settings: MDA-MB-231, 48 h
# OVCAR-8 = experiment: Growth inhibition of human OVCAR8 cells after 48 hrs by SRB assay; format: functional; settings: OVCAR-8, 48 h
# T47D = experiment: Growth inhibition of human T47D cells after 48 hrs by SRB assay; format: functional
# SK-MEL-28 = experiment: Growth inhibition of human SK-MEL-28 cells after 48 hrs by SRB assay; format: functional; settings: SK-MEL-28, 48 h
# M14 = experiment: Growth inhibition of human M14 cells after 48 hrs by SRB assay; format: functional; settings: M14, 48 h
# EKVX = experiment: Growth inhibition of human EKVX cells after 48 hrs by SRB assay; format: functional
# ACHN = experiment: Growth inhibition of human ACHN cells after 48 hrs by SRB assay; format: functional
# NCI/ADR-RES = experiment: Growth inhibition of human NCI/ADR-RES cells after 48 hrs by SRB assay; format: functional
# HCT-116 = experiment: Growth inhibition of human HCT116 cells after 48 hrs by SRB assay; format: functional; settings: HCT-116, 48 h
# K562 = experiment: Growth inhibition of human K562 cells after 48 hrs by SRB assay; format: functional; settings: K562, 48 h
# UACC-62 = experiment: Growth inhibition of human UACC62 cells after 48 hrs by SRB assay; format: functional; settings: UACC-62, 48 h
# RXF 393 = experiment: Growth inhibition of human […] cells after 48 hrs by SRB assay; format: functional; settings: RXF 393, 48 h
# SW-620 = experiment: Growth inhibition of human SW620 cells after 48 hrs by SRB assay; format: functional; settings: SW-620, 48 h
# HOP-92 = experiment: Growth inhibition of human HOP92 cells after 48 hrs by SRB assay; format: functional; settings: HOP-92, 48 h
# TK-10 = experiment: Growth inhibition of human TK10 cells after 48 hrs by SRB assay; format: functional; settings: TK-10, 48 h
# SNB-75 = experiment: Growth inhibition of human SNB75 cells after 48 hrs by SRB assay; format: functional; settings: SNB-75, 48 h
# RPMI-8226 = experiment: Growth inhibition of human RPMI8226 cells after 48 hrs by SRB assay; format: functional; settings: RPMI-8226, 48 h; for CC50: read-out: LC50 (the source's name)
# A549 = experiment: Growth inhibition of human A549 cells after 48 hrs by SRB assay; format: functional; settings: A549, 48 h
# SR [1] = experiment: Cell cycle arrest in human SR cells assessed as accumulation at G0/G1 phase at 0.0153 uM after 24 hrs using propidium iodide staining by flow cytometry; format: functional, cell-based
# 786-0 = experiment: Growth inhibition of human 786-0 cells after 48 hrs by SRB assay; format: functional; settings: 786-0, 48 h
# CAKI-1 = experiment: Growth inhibition of human Caki1 cells after 48 hrs by SRB assay; format: functional; settings: CAKI-1, 48 h
# MCF7 = experiment: Growth inhibition of human MCF7 cells after 48 hrs by SRB assay; format: functional; settings: MCF7, 48 h
# NCI-H522 = experiment: Growth inhibition of human NCI-H522 cells after 48 hrs by SRB assay; format: functional; settings: NCI-H522, 48 h
# COLO 205 = experiment: Growth inhibition of human COLO205 cells after 48 hrs by SRB assay; format: functional; settings: COLO 205, 48 h
# SN12C = experiment: Growth inhibition of human SN12C cells after 48 hrs by SRB assay; format: functional
# UO-31 = experiment: Growth inhibition of human UO31 cells after 48 hrs by SRB assay; format: functional; settings: UO-31, 48 h
# HCT-15 = experiment: Growth inhibition of human HCT15 cells after 48 hrs by SRB assay; format: functional; settings: HCT-15, 48 h
# [2] = Growth inhibition of human Hs 578T cells after 48 hrs by SRB assay; format: functional
# U-251 = experiment: Growth inhibition of human U251 cells after 48 hrs by SRB assay; format: functional; settings: U-251, 48 h
# BT-549 = experiment: Growth inhibition of human BT549 cells after 48 hrs by SRB assay; format: functional; settings: BT-549, 48 h
# SNB-19 = experiment: Growth inhibition of human SNB19 cells after 48 hrs by SRB assay; format: functional; settings: SNB-19, 48 h
# OVCAR-3 = experiment: Growth inhibition of human OVCAR-3 cells after 48 hrs by SRB assay; format: functional; settings: OVCAR-3, 48 h
# PC-3 = experiment: Growth inhibition of human PC3 cells after 48 hrs by SRB assay; format: functional; settings: PC-3, 48 h
# SK-OV-3 = experiment: Growth inhibition of human SKOV3 cells after 48 hrs by SRB assay; format: functional; settings: SK-OV-3, 48 h
# LOX IMVI = experiment: Growth inhibition of human LOXIMVI cells after 48 hrs by SRB assay; format: functional
# MOLT-4 = experiment: Growth inhibition of human MOLT4 cells after 48 hrs by SRB assay; format: functional; settings: MOLT-4, 48 h; for CC50: read-out: LC50 (the source's name)
# KM12 = experiment: Growth inhibition of human KM12 cells after 48 hrs by SRB assay; format: functional; settings: KM12, 48 h
# SR [3] = experiment: Growth inhibition of human SR cells after 48 hrs by SRB assay; format: functional
# A498 = experiment: Growth inhibition of human A498 cells after 48 hrs by SRB assay; format: functional; settings: A498, 48 h
# [4] = read-out: LC50 (the source's name)
compound,measurement,setting,value
CCCCOc1ccc(NC(=O)n2nc(N)c3ccccc32)cc1,GI50,NCI-H322M,20.6 µM
same,GI50,SF-268,25.8 µM
same,GI50,IGROV-1,35.5 µM
same,GI50,HL-60(TB),2.23 µM
same,TGI,HL-60(TB),30.4 µM
same,CC50,HL-60(TB),> 100 µM
same,GI50,HCC 2998,19 µM
same,GI50,HT-29,13.5 µM
same,GI50,NCI-H226,21.2 µM
same,GI50,MDA-MB-231,13.8 µM
same,GI50,OVCAR-8,35.9 µM
same,GI50,T47D,14.8 µM
same,GI50,SK-MEL-28,32.6 µM
same,GI50,M14,18.6 µM
same,GI50,EKVX,13.3 µM
same,GI50,ACHN,22.8 µM
same,GI50,NCI/ADR-RES,23.7 µM
same,GI50,HCT-116,19.9 µM
same,GI50,K562,15.9 µM
same,GI50,UACC-62,14.7 µM
same,GI50,RXF 393,29.6 µM
same,GI50,SW-620,18.3 µM
same,GI50,HOP-92,18.6 µM
same,GI50,TK-10,24.2 µM
same,GI50,SNB-75,28.6 µM
same,GI50,RPMI-8226,2.72 µM
same,TGI,RPMI-8226,30.8 µM
same,CC50,RPMI-8226,> 100 µM
same,GI50,A549,23.5 µM
same,Activity,SR [1],Active
same,GI50,786-0,21 µM
same,GI50,CAKI-1,28.3 µM
same,GI50,MCF7,14.5 µM
same,GI50,NCI-H522,27.4 µM
same,GI50,COLO 205,13.9 µM
same,GI50,SN12C,23.1 µM
same,GI50,UO-31,17.5 µM
same,GI50,HCT-15,15.5 µM
same,GI50,[2],20.2 µM
same,GI50,U-251,30.5 µM
same,GI50,BT-549,14 µM
same,GI50,SNB-19,42.7 µM
same,GI50,OVCAR-3,18.8 µM
same,GI50,PC-3,14.9 µM
same,GI50,SK-OV-3,44 µM
same,GI50,LOX IMVI,12.2 µM
same,GI50,MOLT-4,4.48 µM
same,TGI,MOLT-4,46.2 µM
same,CC50,MOLT-4,> 100 µM
same,GI50,KM12,11.3 µM
same,GI50,SR [3],16 µM
same,GI50,A498,19 µM
Nc1nn(C(=O)Nc2ccc(Cc3ccccc3)cc2)c2ccccc12,GI50,NCI-H322M,27.8 µM
same,GI50,SF-268,4.66 µM
same,GI50,IGROV-1,6.98 µM
same,GI50,HL-60(TB),0.466 µM
same,TGI,HL-60(TB),15.2 µM
same,CC50,HL-60(TB),54.9 µM
same,GI50,HCC 2998,4.27 µM
same,GI50,HT-29,2.39 µM
same,TGI,HT-29,17.6 µM
same,CC50,HT-29; [4],56.3 µM
same,GI50,NCI-H226,13.5 µM
same,GI50,MDA-MB-231,0.847 µM
same,TGI,MDA-MB-231,43.9 µM
same,CC50,MDA-MB-231; [4],> 100 µM
same,GI50,OVCAR-8,21.9 µM
same,GI50,T47D,1.55 µM
same,TGI,T47D,> 100 µM
same,CC50,T47D; [4],> 100 µM
same,GI50,SK-MEL-28,11.5 µM
same,GI50,M14,0.772 µM
same,TGI,M14,> 100 µM
same,CC50,M14; [4],> 100 µM
same,GI50,EKVX,11.2 µM
same,GI50,ACHN,1.69 µM
same,TGI,ACHN,33.4 µM
same,CC50,ACHN; [4],> 100 µM
same,GI50,NCI/ADR-RES,7.87 µM
same,GI50,HCT-116,7.03 µM
same,GI50,K562,1.2 µM
same,LC50 (concentration killing 50% of cells),K562,> 100 µM
same,TGI,K562,33.8 µM
same,GI50,UACC-62,0.353 µM
same,TGI,UACC-62,> 100 µM
same,CC50,UACC-62; [4],> 100 µM
same,GI50,RXF 393,22.2 µM
same,GI50,SW-620,3.62 µM
same,GI50,HOP-92,14.2 µM
same,GI50,TK-10,27.2 µM
same,GI50,SNB-75,17 µM
same,GI50,RPMI-8226,1.86 µM
same,TGI,RPMI-8226,25.8 µM
same,CC50,RPMI-8226,84 µM
same,GI50,A549,12.9 µM
same,Activity,SR [1],Active
same,GI50,786-0,3.76 µM
same,GI50,CAKI-1,21.1 µM
same,GI50,MCF7,0.555 µM
same,TGI,MCF7,8.82 µM
same,CC50,MCF7; [4],89.1 µM
same,GI50,NCI-H522,2.9 µM
same,TGI,NCI-H522,> 100 µM
same,CC50,NCI-H522; [4],> 100 µM
same,GI50,COLO 205,13.4 µM
same,GI50,SN12C,12.9 µM
same,GI50,UO-31,0.347 µM
same,TGI,UO-31,> 100 µM
same,CC50,UO-31; [4],> 100 µM
same,GI50,HCT-15,1.08 µM
same,TGI,HCT-15,> 100 µM
same,CC50,HCT-15; [4],> 100 µM
same,GI50,[2],17.2 µM
same,GI50,U-251,13.9 µM
same,GI50,BT-549,13.5 µM
same,GI50,SNB-19,22.8 µM
same,GI50,OVCAR-3,6.23 µM
same,GI50,PC-3,13.5 µM
same,GI50,SK-OV-3,36.9 µM
same,GI50,LOX IMVI,0.477 µM
same,LC50 (concentration killing 50% of cells),LOX IMVI,61.5 µM
same,TGI,LOX IMVI,16.1 µM
same,GI50,MOLT-4,0.636 µM
same,TGI,MOLT-4,20.4 µM
same,CC50,MOLT-4,> 100 µM
same,GI50,KM12,2.94 µM
same,TGI,KM12,> 100 µM
same,CC50,KM12; [4],> 100 µM
same,GI50,SR [3],0.0153 µM
same,TGI,SR [3],82.2 µM
same,CC50,SR [3]; [4],34.8 µM
same,GI50,A498,16.7 µM
